This test concerns PARP cleavage in DoHH-2 cells. The test is described as follows: PARP cleavage by Western blotting. To be noted: DoHH-2 cells, 2, 6 and 24 hr, low micromolar concentrations. The test is classed as cell-based, human. On the procedure:
Additionally, using an exemplary amino naphthyridinones, Compound 1, […] PARP cleavage has been observed. PARP is downstream of the caspase cascade; its cleavage is an indicator or caspase-dependent apoptosis. PARP cleavage was assessed by Western blotting exponentially growing cultures of DoHH-2 cells that had been cultured overnight (18 h) in 1% FBS containing RPMI1640 media. These cells were washed, counted and plated with and without Compound 1 for 2, 6, and 24 hr. Cells were centrifuged and cell pellets were lysed using RIPA buffer from CST. Protein lysates were quantified using the BCA protein assay kit from Pierce and used in a standard Western blotting procedure. Anti-PARP antibody was obtained from CST and used as per the manufacturer's protocol. […] Thus amino naphthyridinones can be used to induce apoptosis in tumor cells.
(A western blot detects proteins with antibodies after separation by electrophoresis.)

The structures appear in SMILES notation.

Consider `CCN(CC)CCOc1ccc(Nc2cc3c(cn2)cc(-c2ccccc2)c(=O)n3CC)nc1` [Compound 1, 7-[5-(2-Diethylamino-ethoxy)-pyridin-2-ylamino]-1-ethyl-3-phenyl-1H-[1, 6]naphthyridin-2-one], for which the PARP cleavage entry is reported as “induced the apoptotic pathway as shown by PARP cleavage”.

The record behind these values is patent US9714247B2, “Multiple kinase pathway inhibitors” (Mannkind Corporation, priority 2012, dated 2017).
